Where two headings read alike, the source gives them in different places.
Experiments:
Type in all cases: in vivo
ICR male mice [1] = test: Anti-chlorpromazine action (locomotor stimulant action); conditions: SC, mice given chlorpromazine HCl 5 mg/kg s.c., test compound one hour later, estimated from regression line; for ED (3000 locomotor counts): Mus musculus, 2 h, read-out: Concentration of test compound necessary for inducing 3000 count of automatism quantity in 2 hours
Method: Anti-chlorpromazine action (Locomotor stimulant action)
ICR male mice weighing 35 - 40 g (four animals per group) were subcutaneously administered with chlorpromazine HCI at the dose of 5 mg/kg and immediately set in the automatic locomotor-measuring apparatus (AUTOMEX). One hour later, the test compound dissolved in saline was subcutaneously administered, and the locomotor activity was measured every 15 minutes for 120 minutes. The total locomotor activity during the period of 120 minutes was calculated and the regression line was estimated based on the method of least squares, from which the amount of the test compound necessary for inducing 3000 locomotor-count was estimated (Table 2).

Wistar male rats = test: Flexor reflex in spinalized rats; parameters: key to Area below the reflex amplitude linking line: area under % amplitude vs. time line over 60 min (pre-dose = 100%); conditions: pre-dose amplitude = 100%; for response vs control in vivo at 0.1 mg/kg / response vs control in vivo at 0.3 mg/kg: Rattus norvegicus; for Area below the reflex amplitude linking line: covering 60 minutes
Method: Flexor reflex in spinalized rats
Wistar male rats (weighing 450 - 520 g) were anesthetized with ether, and the cervical part of spinal cord was exposed, into which a tracheal cannula was inserted. The vagus nerves were severed bilaterally at the cervical region. Thereafter, the cervical vertebra C1 segment was transected, and rapidly, artificial ventilation was given with the use of an artificial respirator (Shinano Factory 60 rpm. 4 ml/stroke). The rat was placed on a thermostated apparatus in which water thermostated at 37 C was circulated and fixed thereto at forelimbs, right hindlimb, tooth and tail. A venous cannula was inserted into the femoral vein in the right hindlimb and two needle electrodes were subcutaneously inserted into the left skin of the toe, and a piece of thread was attached to the limb with the edge of the thread bonded to a force-displacement - transducer. Tension of about 5 g was applied to the thread. Through the elctrodes, electric stimuli of 50 - 100 V were applied once per 30 seconds. The flexor reflex was recorded on the polygraph via a force-displacement transducer. After the reaction became constant in about one-hours' lapse for stabilization, the test compound dissolved in saline was intravenously administered. Thereafter, the reaction was recorded for 1 hour. In the data, taking the mean of the three reactions just before administration of the test compound for 100%, the reflex amplitude at 1-, 3-, 5-, 8-, 10-, 15-, 20-, 30-, 40-, 50- and 60- minutes' lapse after administration of the test compound were calculated. In Table 3, there are shown calculated area below the straight line linking the obtained reflex amplitude at the respective above-mentioned time covering 60 minutes in the case of administration of each test compounds at the dose of 0.1 mg/kg, and the reflex amplitude at 10- and 60-minutes' lapse after administration (Table 3).

ICR male mice [2] = test: Anti-reserpine action (antagonistic action against hypothermia); conditions: SC, mice given reserpine 5 mg/kg s.c., test compound 3 or 3.5 hours later, estimated from regression line; for ED (1 degC rise in body temperature): Mus musculus, 2 h, read-out: Concentration of test compound necessary for raising body temperature by 1 °C on the average for 120 minutes
Method: Anti-reserpine action (Antagonistic action against hypothermia)
ICR male mice weighing 35 - 40 g were subcutaneously administered with reserpine at the dose of 5 mg/kg. About 2 hours later, each of the mice was held by a mouse-holder, and a body temperature sensor was intrarectally inserted. Thereafter, the body temperature was automatically measured every 10 minutes. The test compound dissolved in saline was subcutaneously administered 3 or 3.5 hours after administration of reserpine. After the administration of the test compound, the body temperature was measured every 10 minutes over the period of 120 minutes. The area below the body temperature line during the period was calculated, from which the regression line was estimated based upon least square method, and estimated was the amount of the test compound necessary for raising the body temperature by 1 °C on the average for 120 minutes from that just before the administration of the test compound (Table 1).

[3] = 10 min, intravenous administration at the dose of 0.1 mg/kg, read-out: Reflex amplitude (%) 10 min. after
[4] = 1 h, intravenous administration at the dose of 0.1 mg/kg, read-out: Reflex amplitude (%) 60 min. after
[5] = intravenous administration at the dose of 0.1 mg/kg
[6] = 10 min, intravenous administration at the dose of 0.3 mg/kg (footnote *), read-out: Reflex amplitude (%) 10 min. after
[7] = intravenous administration at the dose of 0.3 mg/kg (footnote *)

SMILES	ED (3000 locomotor counts) (ICR male mice [1]) [mg/kg]	response vs control in vivo at 0.1 mg/kg (Wistar male rats; [3]) [%]	response vs control in vivo at 0.1 mg/kg (Wistar male rats; [4]) [%]	Area below the reflex amplitude linking line (Wistar male rats; [5])	ED (1 degC rise in body temperature) (ICR male mice [2]) [mg/kg]	response vs control in vivo at 0.3 mg/kg (Wistar male rats; [6]) [%]	Area below the reflex amplitude linking line (Wistar male rats; [7])	response vs control in vivo at 0.3 mg/kg (Wistar male rats; 1 h, intravenous administration at the dose of 0.3 mg/kg (footnote *), read-out: Reflex amplitude (%) 60 min. after) [%]	Concentration of test compound necessary for inducing 3000 count of automatism quantity in 2 hours (ICR male mice [1]) [mg/kg]	Reflex amplitude (%) 10 min. after (Wistar male rats; [5]) [%]	Reflex amplitude (%) 60 min. after (Wistar male rats; [5]) [%]	Concentration of test compound necessary for raising body temperature by 1 °C on the average for 120 minutes (ICR male mice [2]) [mg/kg]
C[C@@H]1CC(=O)N[C@@H]1C(=O)N[C@@H](Cc1c[nH]cn1)C(=O)N1CSC[C@H]1C(N)=O [Compound 3, 3-[N^α-(cis-3-Methylpyroglutamyt)-L-histidyl]-L-thiazolidine-4-carboxamide]	0.47	190	278	13811	0.2	–	–	–	–	–	–	–
C[C@@H]1CC(=O)O[C@@H]1C(=O)N[C@@H](Cc1c[nH]cn1)C(=O)N1CCC[C@H]1C(N)=O [Compound 5, N^α-[(2S,3R)-Tetrahydro-3-methyl-5-oxo-2-furancarbonyl]-L-histidyl-L-prolinamide]	0.7	132	–	9221	0.12	–	–	–	–	–	–	–
NC(=O)[C@@H]1CCCN1C(=O)[C@H](Cc1c[nH]cn1)NC(=O)C1CCC(=O)C1 (stereo partly drawn) [Compound 13, N^α-(3-Oxocyclopentanecarbonyl)-L-histidyl-L-prolinamide]	1.03	110	–	8572	0.71	–	–	–	–	–	–	–
CC1(C)CC(=O)CC1C(=O)N[C@@H](Cc1c[nH]cn1)C(=O)N1CCC[C@H]1C(N)=O (stereo partly drawn) [Compound 21, N^α-(2,2-Dimethyl-4-oxocyclopentanecarbonyl)-L-histidyl-L-prolinamide]	0.83	115	–	7186	0.18	170	14294	–	–	–	–	–
NC(=O)C1CCCN1C(=O)C(Cc1c[nH]cn1)NC(=O)C1CCC(=O)O1 (centres unmarked) [DN1417, reference compound]	4.34	–	–	–	2.06	114	8152	163	–	–	–	–
NC(=O)[C@@H]1CCCN1C(=O)[C@H](Cc1c[nH]cn1)NC(=O)[C@H]1NC(=O)C[C@@H]1c1ccccc1 (relative stereo) [Compound 10, N^a-(trans-3-Phenylpyroglutamyl)-L-histidyl-L-prolinamide]	–	–	–	16593	–	–	–	–	1.89	242.7	329.2	0.53
NC(=O)[C@@H]1CCCN1C(=O)[C@H](Cc1c[nH]cn1)NC(=O)[C@@H]1CCC(=O)N1 [TRH, L-pyroglutamyl-L-histidyl-L-prolinamide, reference compound]	6.82	118	–	–	–	–	–	–	–	–	–	–
C[C@@H]1CC(=O)C[C@H]1C(=O)N[C@@H](Cc1c[nH]cn1)C(=O)N1CCC[C@H]1C(N)=O (mixture of isomers) [Compound 20, N^α-(trans-2-Methyl-4-oxocyclopentanecarbonyl)-L-histidyl-L-prolinamide]	1.3	105	–	6317	0.27	129	10355	–	–	–	–	–
C[C@H]1CC(=O)N[C@@H]1C(=O)N[C@@H](Cc1c[nH]cn1)C(=O)N1CSC[C@H]1C(N)=O [Compound 4, 3-[N^α-(trans-3-Methylpyroglutamyl)-L-histidyl]-L-thiazolidine-4-carboxamide]	0.63	143	164	9404	0.34	–	–	–	–	–	–	–
NC(=O)[C@@H]1CCCN1C(=O)[C@H](Cc1c[nH]cn1)NC(=O)[C@@H]1CCC(=O)C1 [Compound 16, N^a-[(1 R)-3-Oxocyclopentanecarbonyl]-L-histidyl-L-prolinamide]	0.88	152	–	12016	0.12	–	–	–	–	–	–	–
C[C@H]1CC(=O)C[C@H]1C(=O)N[C@@H](Cc1c[nH]cn1)C(=O)N1CCC[C@H]1C(N)=O (mixture of isomers) [Compound 19, N^α-(cis-2-Methyl-4-oxocyclopentanecarbonyl)-L-histidyl-L-prolinamide]	0.54	138	–	11860	0.14	250	19114	–	–	–	–	–
C[C@@H]1CC(=O)N[C@@H]1C(=O)N[C@@H](Cc1c[nH]cn1)C(=O)N1CCC[C@H]1C(N)=O [Compound 1, N^α-(cis-3-Methylpyroglutamyt)-L-histidyl-L-prolinamide]	0.51	159	–	12970	0.3	–	–	–	–	–	–	–
NC(=O)[C@@H]1CCCN1C(=O)[C@H](Cc1c[nH]cn1)NC(=O)[C@H]1NC(=O)C[C@H]1c1ccccc1 (relative stereo) [Compound 11, N^α-(cis-3-Phenylpyroglutamyl)-L-histidyf-L-prolinamide]	–	–	–	11321	–	–	–	–	1.89	140.4	240.8	0.28
C[C@H]1CC(=O)N[C@@H]1C(=O)N[C@@H](Cc1c[nH]cn1)C(=O)N1CCC[C@H]1C(N)=O [Compound 2, N^α-(trans-3-Methylpyroglutamyl)-L-histidyl-L-prolinamide]	12.9	126	–	7077	1.11	–	–	–	–	–	–	–
